Experiment [1] concerns HCT116 colon cancer cells. As to the kind of experiment: HCT116 cell viability and proliferation assay (MTS). It counts as cell-based. Particulars: Homo sapiens, HCT-116, HCT116, 72 hours, read-out: Cell viability (MTS): HCT116 Gl50 Day 3. On the procedure: HCT116 colon cancer cells were obtained from ATCC (American Type Culture Collection), and maintained in Mc Coy's 5A medium containing 10% FBS, 3 mM glutamine and 1% penicillin/streptomycin. Cells were incubated at 37° C. in a humidified atmosphere containing 5% CO2.
Cell viability was assayed using the MTS technique in 96-well culture plates (CellTiter 96® Aqueous Non-Radioactive Cell Proliferation Assay, Promega) according to the manufacturer's instructions. MTS (3-(4,5-dimethyl-thiazol-2-yl)-5-(3-carboxy-methoxyphenyl)-2-(4-sulfophenyl)-2H-tetra-zolium) is a MTT-derived tetrazolium that is reduced in metabolically active cells into a soluble, cell-permeant formazan. The amount of formazan, detected by its absorbance at 492 nm is proportional to the number of living, metabolically active cells.
10^3 HCT116 cells were seeded per well. 24 hours later, the medium was changed and the cells treated in triplicate with the concentrations of each compound from 100 μM to 50 nM. The compounds were diluted in 100% DMSO, whose final concentration on cells was kept at 0.5%.
Cells were incubated with the compounds for 72 hours, and their viability then assayed by the addition of MTS for 2 hours. Absorbance at 492 nm was measured directly from the 96-well culture plates. GI50 (Growth Inhibition 50) concentrations for each compound were calculated using a sigmoidal variable slope fit (Prism 4.0, Graphpad Softwares). Values represent mean of three independent experiments.

The next experiment has as its target T1, UCH-L3 (Homo sapiens, UniProt P15374).
T1 sequence (P15374 1-230): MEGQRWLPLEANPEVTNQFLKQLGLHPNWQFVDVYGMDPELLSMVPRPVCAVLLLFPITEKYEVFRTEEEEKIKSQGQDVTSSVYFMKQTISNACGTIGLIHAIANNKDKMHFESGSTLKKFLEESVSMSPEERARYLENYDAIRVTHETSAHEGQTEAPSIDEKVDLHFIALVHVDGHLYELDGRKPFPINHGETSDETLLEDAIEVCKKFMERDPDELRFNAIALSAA
Description: UCH-L3 activity assay (Ub-AMC). It counts as biochemical. The conditions noted are these: 300 nM Ub-AMC, 13 pM enzyme. The method, then: UCH-L3 was diluted in USP buffer (50 mM Tris HCl; 0.5 mM EDTA; 5 mM DTT; 0.01% Triton X-100; Bovine Serum Albumin 0.05 mg·ml^−1 pH 7.6). Compounds stocks (100 mM) were stored at −20° C. in DMSO. Compounds were tested at different concentrations: from 200 μM to 91 nM.
(§1) Reactions were performed as duplicates in Black 384 well plates (small volume microplates; Greiner; 10 μl final reaction volume). The substrate concentration for UCH-L3 was 300 nM Ub-AMC (Boston Biochem). The concentration of the enzyme (UCH-L3) in specificity assays was 13 pM. The concentrations were determined in order to perform specificity assays under initial velocities at fixed substrate concentration. Compounds were pre-incubated with enzymes for 30 minutes at 25° C. Reactions were initiated by addition of substrate to the plates containing the enzymes (+/−compounds) diluted in assay buffer. Reactions were incubated for 60 minutes at 37° C. Reactions were stopped by adding acetic acid (100 mM final). Readings were performed on a Pherastar Fluorescent Reader (BMG). λ Emission 380 nm; λ Excitation=460 nm. Data (mean values+/−standard deviation) were analyzed as % of control (no compound) and plotted as percentage versus the Log of the compound concentration using GraphPad (Prism). Data were fitted to a sigmoidal model (variable slope).

The target in the next experiment is T2, Caspase 3 (Homo sapiens, UniProt P42574).
T2 sequence (P42574 29-175 limits assumed): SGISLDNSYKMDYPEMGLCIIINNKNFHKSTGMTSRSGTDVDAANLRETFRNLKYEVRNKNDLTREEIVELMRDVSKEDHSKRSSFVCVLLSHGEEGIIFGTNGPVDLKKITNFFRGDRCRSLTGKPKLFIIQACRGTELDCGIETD
T2 sequence (P42574 176-277 limits assumed): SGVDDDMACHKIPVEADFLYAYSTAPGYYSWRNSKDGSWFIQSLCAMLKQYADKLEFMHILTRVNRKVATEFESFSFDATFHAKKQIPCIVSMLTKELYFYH
As to the kind of experiment: Caspase 3 activity assay (Ac-DEVD-AMC). It counts as biochemical. The conditions noted are these: 250 nM Ac-DEVD-AMC, 1.6 nM enzyme. The method, then:
Caspase 3 was diluted in Caspase 3 buffer (100 mM Hepes pH 7.5; 10% sucrose; 0.1% CHAPS). Compounds stocks (100 mM) were stored at −20° C. in DMSO. Compounds were tested at different concentrations: from 200 μM to 91 nM.
as §1, with “caspase 3 specificity assay” for “UCH-L3”, “250” for “300”, “(Ac-DEVD-AMC; Promega).” for “Ub-AMC (Boston Biochem).”, “(Caspase 3)” for “(UCH-L3)”, “1.6 nM.” for “13 pM.”

Some results are limits rather than exact numbers.

For `Cc1cccc(CN2CCC(CNC(=O)c3ccc4c(Cl)c5c(nc4c3)CCCC5)CC2)c1` [Example 1, 9-Chloro-5,6,7,8-tetrahydro-acridine-3-carboxylic acid [1-(3-methyl-benzyl)-piperidin-4-ylmethyl]-amide], the IC50 in experiment [1] was 2 µM; at UCH-L3, more than 200 µM; at Caspase 3 it was more than 200 µM.
`CCN1CCCC1CNC(=O)c1ccc2c(Cl)c3c(nc2c1)CCCC3` (stereo not drawn) [Example 2, 9-Chloro-5,6,7,8-tetrahydro-acridine-3-carboxylic acid (1-ethyl-pyrrolidin-2-ylmethyl)-amide]: the figures for the IC50 (in experiment [1]; on UCH-L3; against Caspase 3) were 5 µM, more than 200 µM and more than 200 µM, respectively.
`CCCN(CCC)CCNC(=O)c1ccc2c(Cl)c3c(nc2c1)CCCC3` [Example 3, 9-Chloro-5,6,7,8-tetrahydro-acridine-3-carboxylic acid (2-dipropylamino-ethyl)-amide]: the IC50 is 3.5 µM in experiment [1], more than 200 µM against UCH-L3 and more than 200 µM against Caspase 3.
For the compound `CCCCN(CC)CCNC(=O)c1ccc2c(Cl)c3c(nc2c1)CCCC3` [Example 4, 9-Chloro-5,6,7,8-tetrahydro-acridine-3-carboxylic acid [2-(butyl-ethyl-amino)-ethyl]-amide], the IC50 was 4 µM in experiment [1], more than 200 µM on UCH-L3 and more than 200 µM at Caspase 3.
With `CCN(CCCNC(=O)c1ccc2c(Cl)c3c(nc2c1)CCCC3)Cc1ccccc1` [Example 5, 9-Chloro-5,6,7,8-tetrahydro-acridine-3-carboxylic acid [3-(benzyl-ethyl-amino)-propyl]-amide], the IC50 in experiment [1] is 4 µM; on UCH-L3, more than 200 µM; at Caspase 3, more than 200 µM.
Take `CCCN(CCC)CCCNC(=O)c1ccc2c(Cl)c3c(nc2c1)CCCC3` [Example 6, 9-Chloro-5,6,7,8-tetrahydro-acridine-3-carboxylic acid (3-dipropylamino-propyl)-amide]: the IC50 in experiment [1] is 3.9 µM; against UCH-L3, more than 200 µM; at Caspase 3, more than 200 µM.
As for `CCN(CC)CCNC(=O)c1ccc2c(Cl)c3c(nc2c1)CCCC3` [Example 7, 9-Chloro-5,6,7,8-tetrahydro-acridine-3-carboxylic acid (2-diethylamino-ethyl)-amide], the IC50 in experiment [1] is 4.3 µM; against UCH-L3, more than 200 µM; against Caspase 3 it was more than 200 µM.
Take `O=C(NCCCN1CCCC1)c1ccc2c(Cl)c3c(nc2c1)CCCC3` [Example 8, 9-Chloro-5,6,7,8-tetrahydro-acridine-3-carboxylic acid (3-pyrrolidin-1-yl-propyl)-amide]: the IC50 in experiment [1] was 5.9 µM; at UCH-L3, more than 200 µM; on Caspase 3, more than 200 µM.
`CC1CCCC(C)N1CCCNC(=O)c1ccc2c(Cl)c3c(nc2c1)CCCC3` (stereo not drawn) [Example 9, 9-Chloro-5,6,7,8-tetrahydro-acridine-3-carboxylic acid [3-(2,6-dimethyl-piperidin-1-yl)-propyl]-amide]: the results for the IC50 (in experiment [1]; against UCH-L3; at Caspase 3) were 3.6 µM, more than 200 µM and more than 200 µM, respectively.
As for `CCN(CC)CCCNC(=O)c1ccc2c(Cl)c3c(nc2c1)CCCC3` [Example 10, 9-Chloro-5,6,7,8-tetrahydro-acridine-3-carboxylic acid (3-diethylamino-propyl)-amide], the IC50 in experiment [1] was 5 µM; on UCH-L3 it was more than 200 µM; against Caspase 3, more than 200 µM.
As for `CN(C)CCNC(=O)c1ccc2c(Cl)c3c(nc2c1)CCCC3` [Example 11, 9-Chloro-5,6,7,8-tetrahydro-acridine-3-carboxylic acid (2-dimethylamino-ethyl)-amide], the figures for the IC50 (in experiment [1]; at UCH-L3; on Caspase 3) were 7.8 µM, more than 200 µM and more than 200 µM, respectively.
As to `O=C(c1ccc2c(Cl)c3c(nc2c1)CCCC3)N1CCCCCC1` [Example 12, Azepan-1-yl-(9-chloro-5,6,7,8-tetrahydro-acridin-3-yl)-methanone], the IC50 in experiment [1] was 20 µM; against UCH-L3, more than 200 µM; at Caspase 3 it was more than 200 µM.
For the compound `CCCN1CCN(CCCNC(=O)c2ccc3c(Cl)c4c(nc3c2)CCCC4)CC1` [Example 13, 9-Chloro-5,6,7,8-tetrahydro-acridine-3-carboxylic acid [3-(4-propyl-piperazin-1-yl)-propyl]-amide], the figures for the IC50 (in experiment [1]; against UCH-L3; against Caspase 3) were 5.9 µM, more than 200 µM and more than 200 µM, respectively.
On to `CN(CCCNC(=O)c1ccc2c(Cl)c3c(nc2c1)CCCC3)Cc1ccccc1` [Example 14, 9-Chloro-5,6,7,8-tetrahydro-acridine-3-carboxylic acid [3-(benzyl-methyl-amino)-propyl]-amide], for which the IC50 in experiment [1] was 4.1 µM; against UCH-L3, more than 200 µM; at Caspase 3 it was more than 200 µM.
Turning to `CN1CCN(CCCNC(=O)c2ccc3c(Cl)c4c(nc3c2)CCCC4)CC1` [Example 15, 9-Chloro-5,6,7,8-tetrahydro-acridine-3-carboxylic acid [3-(4-methyl-piperazin-1-yl)-propyl]-amide], the IC50 in experiment [1] was 7.4 µM; at UCH-L3, more than 200 µM; on Caspase 3 it was more than 200 µM.
With `O=C(c1ccc2c(Cl)c3c(nc2c1)CCCC3)N1CCC(N2CCCCC2)CC1` [Example 16, [1,4′]Bipiperidinyl-1′-yl-(9-chloro-5,6,7,8-tetrahydro-acridin-3-yl)-methanone], the IC50 is 13.5 µM in experiment [1], more than 200 µM on UCH-L3 and more than 200 µM against Caspase 3.
